≈ marks a conversion by molar mass, not a printed value. Like-named read-outs stand apart in the source and are kept apart here.
Legend:
C. glabrata NCPF8018 = assay: Candida panel MIC, serial dilution in 96-well plates; assay type: cell-based, Candida glabrata; conditions: Nakaseomyces glabratus
Procedure: (§1) The minimum inhibitory concentration of test compounds were determined in a panel of Candida species (see Table 4 below), using the a serial dilution method in 96-well plates using the following protocol.
(§2) Starter cultures of fungal strains to be tested were grown in 3 mL of RPMI 2% glucose media incubated at 37° C. with shaking at 200 rpm overnight. The culture media used was 900 mL H2O; 10.4 g RPMI 1640 (with L-glutamine and a pH indicator but without bicarbonate); 34.5 g MOPS and 18 g glucose. The pH of the media was adjusted to 7.0 with 1 M sodium hydroxide.
(§3) Solutions of the compound to be tested were prepared by dissolving the compound in DMSO and subsequently into media to the desired concentrations. […] The last two rows of each plate were control rows containing the culture media alone and the media plus fungi.
(§4) The fungi starter cultures were diluted 1:10 in water in cuvettes. This was then further diluted to an optical density (OD600) of 0.01 in media. 100 μL of the fungi was added to each well giving a starting concentration of fungus of 0.5-5×10^5/mL. One species of fungus was used on each plate. The plates were then held at 37° C. for 24 hours.
(§5) A plate reader was used to measure growth in each well at OD530 nm and the MIC was determined for each test compound. The MIC is defined as the lowest concentration giving rise to inhibition of ≥50% of that of the drug-free control well containing the fungus and media.

C. albicans NCPF3281 = assay: as above; assay type: cell-based, Candida albicans; conditions: Candida albicans, NCPF3281; Table 4, common panel; 24 hours, ≥50% inhibition; read-out: MIC C. albicans NCPF3281
Procedure: as §1, §2
(§6) Solutions of the compound to be tested were prepared by dissolving the compound in DMSO and subsequently into media to the desired concentrations. 200 μL of compound solution was then added to the wells of the 96-well plate using a serial dilution method row-by row of the plate to give a compound concentration gradient across the plate of from 128 μg/mL to 0.25 μg/mL. The last two rows of each plate were control rows containing the culture media alone and the media plus fungi.
as §4, §5

Candida auris TDG2211 = assay: microbe, parasite or virus in culture; assay type: cell-based; conditions: Candidozyma auris, TDG2211; Table 4, extended panel; 24 hours, ≥50% inhibition; read-out: MIC Candida auris TDG2211
Procedure: as §1, §2, §3, §4, §5
(§7) The Candida auris strains shown in Table 7 were either taken from the National Collection of Pathogenic Fungi (NCPF) or collected as part of ongoing surveillance studies. The strains were characterised as follows.

Candida auris TDG2506 = assay: microbe, parasite or virus in culture; assay type: cell-based; conditions: Candidozyma auris, TDG2506; Table 4, extended panel; 24 hours, ≥50% inhibition; read-out: MIC Candida auris TDG2506
Procedure: as §1, §2, §3, §4, §5, §7

C. parapsilosis NCPF3209 = assay: microbe, parasite or virus in culture; assay type: cell-based, Candida parapsilosis; conditions: Lodderomyces parapsilosis
Procedure: as §1, §2, §3, §4, §5

C. auris 8984 = assay: Candida panel MIC, serial dilution in 96-well plates; assay type: cell-based, Candida auris; conditions: Candidozyma auris, 8984; Table 4, extended panel; 24 hours, ≥50% inhibition; read-out: MIC C. auris 8984
Procedure: as §1, §2, §3, §4, §5, §7

C. auris 8971 = assay: as above; assay type: cell-based, Candida auris; conditions: Candidozyma auris, 8971; Table 4, extended panel; 24 hours, ≥50% inhibition; read-out: MIC C. auris 8971
Procedure: as §1, §2, §3, §4, §5, §7

C. auris 8977 = assay: as above; assay type: cell-based, Candida auris; conditions: Candidozyma auris, 8977; Table 4, extended panel; 24 hours, ≥50% inhibition; read-out: MIC C. auris 8977
Procedure: as §1, §2, §3, §4, §5, §7

C. auris TDG1912 = assay: as above; assay type: cell-based; conditions: Candidozyma auris, TDG1912; Table 4; 24 hours, ≥50% inhibition; read-out: MIC C. auris TDG1912
Procedure: as §1, §2, §6, §4, §5

Candida auris TDG1102 = assay: as above; assay type: cell-based; conditions: Candidozyma auris, TDG1102; Table 4, extended panel; 24 hours, ≥50% inhibition; read-out: MIC Candida auris TDG1102
Procedure: as §1, §2, §6, §4, §5

Candida auris TDG2512 = assay: as above; assay type: cell-based; conditions: Candidozyma auris, TDG2512; Table 4, extended panel; 24 hours, ≥50% inhibition; read-out: MIC Candida auris TDG2512
Procedure: as §1, §2, §6, §4, §5

C. tropicalis NCPF8760 = assay: as above; assay type: cell-based
Procedure: as §1, §2, §6, §4, §5

C. krusei NCPF3876 = assay: microbe, parasite or virus in culture; assay type: cell-based, Candida krusei; conditions: Pichia kudriavzevii
Procedure: as §1, §2, §3, §4, §5

[1] = NCPF8018, Table 4, common panel, 24 hours, ≥50% inhibition, read-out: MIC C. glabrata NCPF8018
[2] = NCPF3209, Table 4, common panel, 24 hours, ≥50% inhibition, read-out: MIC C. parapsilosis NCPF3209
[3] = NCPF8760, Table 4, common panel, 24 hours, ≥50% inhibition, read-out: MIC C. tropicalis NCPF8760
[4] = NCPF3876, Table 4, common panel, 24 hours, ≥50% inhibition, read-out: MIC C. krusei NCPF3876

| SMILES | MIC (C. glabrata NCPF8018; [1]) | MIC (C. albicans NCPF3281) | MIC (Candida auris TDG2211) | MIC (Candida auris TDG2506) | MIC (C. parapsilosis NCPF3209; [2]) | MIC (C. auris 8984) | MIC (C. auris 8971) | MIC (C. auris 8977) | MIC (C. auris TDG1912) | MIC (Candida auris TDG1102) | MIC (Candida auris TDG2512) | MIC (C. tropicalis NCPF8760; [3]) | MIC (C. krusei NCPF3876; [4]) | MIC (C. glabrata NCPF8018; NCPF8018, read-out: MIC C. Glabrata NCPF8018) | MIC (C. parapsilosis NCPF3209; NCPF3209, read-out: MIC C. Parapsilosis NCPF3209) | MIC (C. tropicalis NCPF8760; NCPF8760, read-out: MIC C. Tropicalis NCPF8760) | MIC (C. krusei NCPF3876; NCPF3876, read-out: MIC C. Krusei NCPF3876) |
| --- | --- | --- | --- | --- | --- | --- | --- | --- | --- | --- | --- | --- | --- | --- | --- | --- | --- |
| OC(CN1CCCN(c2ncc(F)cn2)CC1)(Cn1cncn1)c1ccc(F)cc1F (stereo not drawn) [Example 8, 2-(2,4-Difluorophenyl)-1-(4-(5-fluoropyrimidin-2-yl)-1,4-diazepan-1-yl)-3-(1H-1,2,4-triazol-1-yl)propan-2-ol] | 250 ng/mL (≈ 0.577 µM) | < 15 ng/mL | 1000 ng/mL (≈ 2.31 µM) | 8000 ng/mL (≈ 18.5 µM) | 15 ng/mL (≈ 0.0346 µM) | 120 ng/mL (≈ 0.277 µM) | 120 ng/mL (≈ 0.277 µM) | 120 ng/mL (≈ 0.277 µM) | 2000 ng/mL (≈ 4.61 µM) | 1000 ng/mL (≈ 2.31 µM) | 2000 ng/mL (≈ 4.61 µM) | 1000 ng/mL (≈ 2.31 µM) | 500 ng/mL (≈ 1.15 µM) | – | – | – | – |
| OC(CN1CCCC(Nc2ccc(Cc3ccccc3)cc2)CC1)(Cn1cncn1)c1ccc(F)cc1F (stereo not drawn) [Example 9, 1-(4-((4-Benzylphenyl)amino)azepan-1-yl)-2-(2,4-difluorophenyl)-3-(1H-1,2,4-triazol-1-yl)propan-2-ol] | 125 ng/mL (≈ 0.241 µM) | < 4 ng/mL | 250 ng/mL (≈ 0.483 µM) | 500 ng/mL (≈ 0.966 µM) | ≤ 0.06 ng/mL | 120 ng/mL (≈ 0.232 µM) | 120 ng/mL (≈ 0.232 µM) | 0.1 ng/mL (≈ 0.000193 µM) | 500 ng/mL (≈ 0.966 µM) | 1000 ng/mL (≈ 1.93 µM) | 125 ng/mL (≈ 0.241 µM) | 125 ng/mL (≈ 0.241 µM) | 8 ng/mL (≈ 0.0155 µM) | 125 ng/mL (≈ 0.241 µM) | ≤ 0.06 ng/mL | 500 ng/mL (≈ 0.966 µM) | 8 ng/mL (≈ 0.0155 µM) |
| OC(CN1CCC(N2CCC(Nc3ncc(F)cn3)CC2)CC1)(Cn1cncn1)c1ccc(F)cc1F (stereo not drawn) [Example 10, 2-(2,4-Difluorophenyl)-1-(4-((5-fluoropyrimidin-2-yl)amino)-[1,4′-bipiperidin]-1′-yl)-3-(1H-1,2,4-triazol-1-yl)propan-2-ol] | 64000 ng/mL (≈ 124 µM) | 15 ng/mL (≈ 0.029 µM) | 64000 ng/mL (≈ 124 µM) | 8000 ng/mL (≈ 15.5 µM) | 125 ng/mL (≈ 0.242 µM) | 500 ng/mL (≈ 0.968 µM) | 500 ng/mL (≈ 0.968 µM) | 1000 ng/mL (≈ 1.94 µM) | 4000 ng/mL (≈ 7.74 µM) | 4000 ng/mL (≈ 7.74 µM) | 500 ng/mL (≈ 0.968 µM) | 64000 ng/mL (≈ 124 µM) | 32000 ng/mL (≈ 61.9 µM) | – | – | – | – |
| OC(CN1CCC(N2CCC(Nc3ccccc3)CC2)CC1)(Cn1cncn1)c1ccc(F)cc1F (stereo not drawn) [Example 14, 2-(2,4-difluorophenyl)-1-(4-(phenylamino)-[1,4′-bipiperidin]-1′-yl)-3-(1H-1,2,4-triazol-1-yl)propan-2-ol] | 16000 ng/mL (≈ 32.2 µM) | ≤ 125 ng/mL | ≤ 125 ng/mL | 2000 ng/mL (≈ 4.03 µM) | ≤ 125 ng/mL | 1000 ng/mL (≈ 2.01 µM) | 250 ng/mL (≈ 0.503 µM) | 250 ng/mL (≈ 0.503 µM) | 1000 ng/mL (≈ 2.01 µM) | 1000 ng/mL (≈ 2.01 µM) | 250 ng/mL (≈ 0.503 µM) | 32000 ng/mL (≈ 64.4 µM) | 4000 ng/mL (≈ 8.05 µM) | – | – | – | – |
| OC(CN1CC2CN(c3ncc(F)cn3)CC2C1)(Cn1cncn1)c1ccc(F)cc1F (stereo not drawn) [Example 15, 2-(2,4-difluorophenyl)-1-(5-(5-fluoropyrimidin-2-yl)hexahydropyrrolo[3,4-c]pyrrol-2(1H)-yl)-3-(1H-1,2,4-triazol-1-yl)propan-2-ol] | 1000 ng/mL (≈ 2.24 µM) | 120 ng/mL (≈ 0.269 µM) | 4000 ng/mL (≈ 8.98 µM) | > 128000 ng/mL | 125 ng/mL (≈ 0.281 µM) | 32000 ng/mL (≈ 71.8 µM) | 500 ng/mL (≈ 1.12 µM) | 1000 ng/mL (≈ 2.24 µM) | 8000 ng/mL (≈ 18 µM) | 8000 ng/mL (≈ 18 µM) | 4000 ng/mL (≈ 8.98 µM) | 8000 ng/mL (≈ 18 µM) | 4000 ng/mL (≈ 8.98 µM) | – | – | – | – |
| OC(CN1C[C@H]2CC(Nc3ccc(Cc4ccccc4)cc3)C[C@H]2C1)(Cn1cncn1)c1ccc(F)cc1F (stereo partly drawn) [Example 16, 1-((3aR,6aS)-5-((4-benzylphenyl)amino)hexahydrocyclopenta[c]pyrrol-2(1H)-yl)-2-(2,4-difluorophenyl)-3-(1H-1,2,4-triazol-1-yl)propan-2-ol] | ≤ 125 ng/mL | ≤ 125 ng/mL | ≤ 125 ng/mL | 500 ng/mL (≈ 0.944 µM) | ≤ 125 ng/mL | 1000 ng/mL (≈ 1.89 µM) | ≤ 125 ng/mL | ≤ 125 ng/mL | 1000 ng/mL (≈ 1.89 µM) | 1000 ng/mL (≈ 1.89 µM) | ≤ 125 ng/mL | 1000 ng/mL (≈ 1.89 µM) | ≤ 125 ng/mL | – | – | – | – |
| OC(CN1CCC(Nc2ccc(Cc3ccc(F)cc3)cc2)CC1)(Cn1cncn1)c1ccc(F)cc1F (stereo not drawn) [Example 30, 2-(2,4-difluorophenyl)-1-(4-((4-(4-fluorobenzyl)phenyl)amino)piperidin-1-yl)-3-(1H-1,2,4-triazol-1-yl)propan-2-ol] | ≤ 125 ng/mL | ≤ 125 ng/mL | ≤ 125 ng/mL | ≤ 125 ng/mL | ≤ 125 ng/mL | ≤ 125 ng/mL | ≤ 125 ng/mL | ≤ 125 ng/mL | ≤ 125 ng/mL | ≤ 125 ng/mL | ≤ 125 ng/mL | ≤ 125 ng/mL | ≤ 125 ng/mL | – | – | – | – |
| OC(CN1CCC(Nc2ccc(OCc3ccncc3)cc2)CC1)(Cn1cncn1)c1ccc(F)cc1F (stereo not drawn) [Example 81] | 2000 ng/mL (≈ 3.84 µM) | 7.81 ng/mL (≈ 0.015 µM) | 31.3 ng/mL (≈ 0.0601 µM) | 125 ng/mL (≈ 0.24 µM) | 7.81 ng/mL (≈ 0.015 µM) | 125 ng/mL (≈ 0.24 µM) | 15.6 ng/mL (≈ 0.03 µM) | 15.6 ng/mL (≈ 0.03 µM) | 31.3 ng/mL (≈ 0.0601 µM) | 62.5 ng/mL (≈ 0.12 µM) | 7.81 ng/mL (≈ 0.015 µM) | 500 ng/mL (≈ 0.96 µM) | 125 ng/mL (≈ 0.24 µM) | – | – | – | – |

— US20240246920A1, “TRIAZOLE DERIVATIVES WITH ANTIFUNGAL ACTIVITY” (King's College London, priority 2020, published 2024)
